Several values for one entry are separate records, joined by “and”; a condition that tells them apart may be missing. Equal values may be shown once.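 How tested: cells in 96-well plates exposed to compound for 48 hours at five concentrations. GI50: concentration for 50% inhibition of growth. TGI marks complete inhibition of growth.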
Legend:
Test in all cases: NCI anticancer screen, dose series, 48 h
HCT-116 colon = system: HCT-116 colon
KM12 colon = system: KM12 colon
MDA-MB-231 breast = system: MDA-MB-231 breast
OVCAR-5 ovarian = system: OVCAR-5 ovarian
RXF 393 renal = system: RXF 393 renal
SF-295 CNS = system: SF-295 CNS
SK-MEL-5 melanoma = system: SK-MEL-5 melanoma
SNB-75 CNS = system: SNB-75 CNS
TK-10 renal = system: TK-10 renal
UACC-257 melanoma = system: UACC-257 melanoma

SMILES	GI50 (HCT-116 colon)	TGI (HCT-116 colon)	GI50 (KM12 colon)	TGI (KM12 colon)	GI50 (MDA-MB-231 breast)	TGI (MDA-MB-231 breast)	GI50 (OVCAR-5 ovarian)	TGI (OVCAR-5 ovarian)	GI50 (RXF 393 renal)	TGI (RXF 393 renal)	GI50 (SF-295 CNS)	TGI (SF-295 CNS)	GI50 (SK-MEL-5 melanoma)	TGI (SK-MEL-5 melanoma)	GI50 (SNB-75 CNS)	TGI (SNB-75 CNS)	GI50 (TK-10 renal)	TGI (TK-10 renal)	GI50 (UACC-257 melanoma) [µM]	TGI (UACC-257 melanoma) [µM]
CC1=C(C#N)C23C(=O)N(c4ccccc4)C(=O)C2=C(O)C=CC3(O)N1Cc1ccc(Cl)cc1Cl (stereo unspecified)	1.73 µM	3.45 µM	3.27 µM	12 µM	3.93 µM	16.1 µM	5 µM	23.4 µM	1.87 µM	3.87 µM	1.32 µM	5.64 µM	5.19 µM	17 µM	4.09 µM	16.7 µM	2.79 µM	11.9 µM	13.2	27
Nc1ncc(-c2ccc3ncnc(Nc4cccc(Cl)c4)c3c2)cn1	–	–	4.79 µM	> 100 µM	2.22 µM	> 100 µM	–	–	–	–	0.216 µM	–	2.31 µM	> 100 µM	0.109 µM	0.695 µM	–	–	> 100	> 100
CC(=O)OC12C(C)=C(C)C(=O)N1c1ccccc1N2C(C)=O (stereo unspecified)	–	> 100 µM	–	> 100 µM	–	–	–	> 100 µM	–	> 100 µM	–	> 100 µM	–	> 100 µM	–	> 100 µM	–	> 100 µM	–	> 100
CC(=O)OCc1c(O)c2c([nH]c1=O)CCc1ccccc1-2	–	110 µM	–	109 µM	–	–	–	–	–	105 µM	–	274 µM	–	177 µM	–	–	–	186 µM	–	203
Nc1nc(=O)n(C2CCC(CO)O2)cc1F (stereo unspecified)	–	–	–	> 100 µM	–	–	–	> 100 µM	–	> 100 µM	–	> 100 µM	–	> 100 µM	–	> 100 µM	–	> 100 µM	–	> 100
O=C1CCCCCCC2=C1C(Sc1ccccc1)CC2 (stereo unspecified)	–	67.8 µM	–	> 100 µM	–	–	–	–	–	48.6 µM	–	> 100 µM	–	> 100 µM	–	90.7 µM	–	> 100 µM	–	> 100
COc1ccc(NC(=O)Oc2ccc3c(C)cc(=O)oc3c2)c(OC)c1 (tested in a mixture with another compound)	–	> 100 µM	–	> 100 µM	–	> 100 µM	–	> 100 µM	–	> 100 µM	–	> 100 µM	–	> 100 µM	–	–	–	> 100 µM	–	–
O=C(O)/C=C/c1ccc(Oc2ccccc2C(=O)O)o1	–	> 10 µM	–	> 10 µM	–	> 10 µM	–	–	–	–	–	> 10 µM	–	> 10 µM	–	> 10 µM	–	> 10 µM	–	> 10
COc1ccc2cc(-c3cnc4nonc4n3)ccc2c1	2.12 µM	> 100 µM	2.03 µM	> 100 µM	14.1 µM	> 100 µM	6 µM	> 100 µM	1.26 µM	7.31 µM	2.08 µM	> 100 µM	1.24 µM	8.5 µM	–	–	10.6 µM	> 100 µM	7.89	> 100
CC(Oc1ccc2c(-c3ccc(Cl)cc3)cc(=O)oc2c1)C(=O)O (stereo unspecified)	–	> 100 µM	–	> 100 µM	–	–	–	–	–	> 100 µM	–	> 100 µM	–	> 100 µM	–	> 100 µM	–	> 100 µM	–	> 100
COc1ccc(N2C(=O)C3CC(c4ccc(Br)cc4)c4c([nH]c5ccccc45)C3C2=O)cc1 (stereo unspecified)	–	16.1 µM	–	> 100 µM	–	–	–	73.4 µM	–	–	–	24.3 µM	–	35.5 µM	–	22.5 µM	–	20 µM	–	36.8
CCC[CH2][Sn](=[O])[CH2]CCC	> 50 µM	> 50 µM	> 50 µM	> 50 µM	–	–	> 30.3 µM	> 50 µM	47.7 µM	> 50 µM	> 50 µM	> 50 µM	> 50 µM	> 50 µM	> 39.7 µM	> 50 µM	> 50 µM	> 50 µM	> 50	> 50
O=C1c2ccccc2C(=O)N1CCc1ncc(-c2ccccc2)[nH]1	–	> 100 µM	–	> 100 µM	–	> 100 µM	–	> 100 µM	–	–	–	> 100 µM	–	> 100 µM	–	> 100 µM	–	> 100 µM	–	> 100
C[C@@H]1C[C@H](N)C[C@H](c2ccncc2NC(=O)c2ccc(F)c(-c3c(F)cccc3F)n2)C1	12.1 µM and 6.94 µM	24.4 µM and > 10 µM	12.3 µM and > 10 µM	27.7 µM and > 10 µM	12.8 µM and 4.01 µM	26.8 µM and > 10 µM	12.3 µM and > 10 µM	25.9 µM and > 10 µM	11 µM and 7.73 µM	26 µM and > 10 µM	12.6 µM and > 10 µM	25.8 µM and > 10 µM	13 µM and 1.58 µM	26.2 µM and 5.01 µM	2.55 µM and 4.3 µM	18.2 µM and > 10 µM	13.1 µM and > 10 µM	26.8 µM and > 10 µM	–	–
CCCCN(CC)C(=O)C(=O)Cc1nc2ccc(C(=O)c3ccccc3)cc2[nH]c1=O	–	> 100 µM	–	> 100 µM	–	–	–	> 100 µM	–	92 µM	–	> 100 µM	–	> 100 µM	–	> 88.1 µM	–	> 100 µM	–	> 100
CC(C)(C)C1=CC(=N/N=c2\scc(-c3ccccc3)n2-c2ccccc2)C=C(C(C)(C)C)C1=O	–	> 100 µM	–	> 100 µM	–	–	–	> 100 µM	–	> 100 µM	–	> 100 µM	–	> 100 µM	–	> 100 µM	–	> 100 µM	–	> 100
O=S1(=O)c2ccccc2N(O)C2=NCCN21	–	> 100 µM	–	> 100 µM	–	–	–	> 100 µM	–	> 100 µM	–	> 100 µM	–	> 100 µM	–	> 100 µM	–	> 100 µM	–	> 100
CC1=CCC2CC1C(C(=O)c1c[nH]c3ccccc13)=NC2(C)C (stereo unspecified)	–	> 100 µM	–	> 100 µM	–	> 100 µM	–	> 100 µM	–	–	–	–	–	> 100 µM	–	–	–	–	–	93.4
COc1ccc(C(=O)C2CCC(C(=O)O)C2)cc1 (stereo unspecified)	–	> 100 µM	–	> 100 µM	–	–	–	> 100 µM	–	> 100 µM	–	> 100 µM	–	> 100 µM	–	> 100 µM	–	> 100 µM	–	> 100
CCCCCCCCCCCCSC(=S)c1c(C)[nH]n(-c2ccccc2)c1=O	–	–	–	–	–	–	–	> 50 µM	–	24.5 µM	–	35.6 µM	–	15.9 µM	–	–	–	> 50 µM	–	29.5

Source: PubChem BioAssay (NCI)
